In ChEMBL document CHEMBL1201862, “PubChem BioAssay data set” (2004):
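Step 1: Grow cells in 96-well plates. Step 2: Expose to compound for 48 hours at 5 concentrations. Step 3: Interpolate endpoints linearly; if unreached, use highest concentration. GI50 marks 50% less growth.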 Activity calls are given as the source filed them. No stated cut-off is given here; in the data, active = GI50 up to about 1.1 µM and inactive = higher.

How the values were obtained:
Test in all cases: NCI tumour cell line growth inhibition, 48 h
[1] = test system: MDA-N
[2] = test system: DMS-114
[3] = test system: HOP-18
[4] = test system: KM-20L2
[5] = test system: LXFL 529
[6] = test system: SNB-78
[7] = test system: DMS-273
[8] = test system: RXF 631
[9] = test system: XF498

O=c1c2ccccc2n2c(S)nnc2n1-c1ccccc1
GI50 [1]: > 100 µM (inactive)

CCc1nc2ccc(NCCN(C)C)c3c(=O)c4ccccc4n1c23
GI50 [2]: 1.49 µM (inactive) | GI50 [3]: 0.891 µM (active) | GI50 [4]: 0.741 µM (active) | GI50 [5]: 0.82 µM (active) | GI50 [6]: 1.53 µM (inactive)

CCCCCCCCCCCCCCCCCC(=O)NCCCNCCCNC(=O)CCCCCCCCCCCCCCCCC
GI50 [2]: > 100 µM (inactive) | GI50 [7]: > 100 µM (inactive) | GI50 [3]: > 100 µM (inactive) | GI50 [4]: > 100 µM (inactive) | GI50 [5]: > 100 µM (inactive) | GI50 [8]: > 100 µM (inactive)

Cc1nc(N)c(N2CCN(C#N)CC2)c(O)n1
GI50 [1]: > 100 µM (inactive)

O=[N+]([O-])c1ccc2c(c1)OCCOCCOc1ccc([N+](=O)[O-])cc1OCCOCCO2
GI50 [2]: > 100 µM (inactive) | GI50 [7]: > 100 µM (inactive) | GI50 [4]: 50.9 µM (inactive) | GI50 [6]: > 100 µM (inactive)

CCCCCCc1nn2c(-c3ccncc3)nnc2s1
GI50 [1]: > 10 µM (inactive)

CC1=NN(C(=O)CC(=O)Nc2cccc(C)c2)C(=O)C1/N=N\c1ccc(S(=O)(=O)c2ccc(/N=N/C3C(=O)N(C(=O)CC(=O)Nc4cccc(C)c4)N=C3C)cc2)cc1 (stereo unspecified)
GI50 [1]: > 100 µM (inactive)

CC(=O)OCC1OC(O[C@@H]2C[C@H]3C(C)(C)[C@H](OC(C)=O)CC[C@]3(C)[C@H]3CC[C@@]45C[C@H](O)C[C@H](C)[C@@H]4CC=C5[C@@]32C)C(O)C(O)C1O (stereo partly specified)
GI50 [1]: 3.61 µM (inactive)

CC(C)=C1C2CC3(C)CCC2(C)CCC13.CC1=CCC2C3(C)CCC2(C(C)C)C1C3 (stereo unspecified)
GI50 [1]: 25.5 µM (inactive)

Clc1ccc(C2=NOC3C4CCC(C4)C23)cc1 (stereo unspecified)
GI50 [7]: > 100 µM (inactive) | GI50 [3]: > 100 µM (inactive) | GI50 [5]: > 100 µM (inactive) | GI50 [6]: > 100 µM (inactive)

O=C1/C(=C/c2ccc([N+](=O)[O-])cc2)C(=O)N(c2ccccc2)C1c1ccccc1 (stereo unspecified)
GI50 [1]: > 10 µM (inactive)

CC(=O)Nc1cc(C(=O)Nc2cc(C(=O)Nc3cc(C(=O)Nc4cc(C(=O)Nc5cc(C(=O)NCCC(=O)NCCCN(C)C)n(C)c5)n(C)c4)n(C)c3)n(C)c2)n(C)c1
GI50 [1]: 34.9 µM (inactive)

O=C1C2=C(CCCC2)Nc2cccc3ncn1c23
GI50 [2]: > 100 µM (inactive) | GI50 [7]: > 100 µM (inactive) | GI50 [3]: 10.3 µM (inactive) | GI50 [4]: > 100 µM (inactive) | GI50 [5]: > 100 µM (inactive) | GI50 [6]: > 100 µM (inactive)

O=C1NC(=S)N/C1=C/c1c(-c2ccccc2)[nH]c2ccccc12
GI50 [1]: 14.9 µM (inactive)

CCN(CC)CCOc1ccc(N2Cc3cc(OC)c(OC)cc3C2=O)cc1
GI50 [1]: > 100 µM (inactive)

N#C/C=c1/c2ccccc2n2nc3ccccc3c12
GI50 [1]: > 100 µM (inactive)

Cc1c(C(Cc2ccccc2N(C)C(=O)/C=C\C(=O)O)c2c[nH]c3ccccc23)c2ccccc2n1C (stereo unspecified)
GI50 [2]: 14.2 µM (inactive) | GI50 [7]: 17.1 µM (inactive) | GI50 [4]: 18.1 µM (inactive) | GI50 [5]: 12.7 µM (inactive) | GI50 [8]: 14.2 µM (inactive) | GI50 [6]: 21.1 µM (inactive) | GI50 [9]: 21 µM (inactive)

CC(C)(C)C(=O)C(CC(=O)c1ccccc1)C(=O)C(C)(C)C
GI50 [1]: > 100 µM (inactive)

C1=CC2C=CC(C=C1)P2c1ccccc1 (stereo unspecified)
GI50 [1]: > 100 µM (inactive)

CC(=O)N1c2ccccc2C2=NN=C(N(C)C)SC21 (stereo unspecified)
GI50 [1]: 3.33 µM (inactive)

COc1ccc(/C=C2/C[N+](C)(C)C/C(=C/c3ccc(OC)cc3)C2=O)cc1
GI50 [2]: 13.4 µM (inactive) | GI50 [7]: 18.3 µM (inactive) | GI50 [3]: > 100 µM (inactive) | GI50 [4]: 50 µM (inactive) | GI50 [5]: 21.9 µM (inactive) | GI50 [6]: 38.5 µM (inactive) | GI50 [9]: 88.7 µM (inactive)

N#CC(C#N)=C1C(=O)NC(N)=C1C#N
GI50 [1]: > 100 µM (inactive)

COC(=O)C1=CC2C(=O)c3ccccc3C1(c1ccccc1)N2C1CCCCC1 (stereo unspecified)
GI50 [1]: 23.7 µM (inactive)

O/N=C(/C(Cl)=C(Cl)Cl)C(Cl)Cl
GI50 [1]: 17 µM (inactive)

O=C1C(N2CCOCC2)=C(Cl)C(=O)c2ncccc21
GI50 [1]: 1.97 µM (inactive)

Oc1ccc2c(c1)CCc1c-2n(CCN2CCOCC2)c2ccc(O)cc12
GI50 [1]: 45.3 µM (inactive)

CN1CCCC2C(c3ccccc3)C(C3=NCCCC3)C(c3ccccc3)CC21 (stereo unspecified)
GI50 [1]: 20.2 µM (inactive)

C[n+]1cccc2ccc3cccnc3c21
GI50 [1]: 67.5 µM (inactive)

Cc1cc2c(cc1C)[n+]([O-])c(C(=O)/C=C/c1ccc(Cl)cc1)c(C)[n+]2[O-]
GI50 [2]: 29.1 µM (inactive) | GI50 [7]: 33.1 µM (inactive) | GI50 [3]: 25.2 µM (inactive) | GI50 [4]: 36.6 µM (inactive) | GI50 [5]: 28.2 µM (inactive) | GI50 [6]: > 100 µM (inactive) | GI50 [9]: 21.6 µM (inactive)

O=C(Nc1ccccc1Br)c1cccc([N+](=O)[O-])c1O
GI50 [2]: 3.18 µM (inactive) | GI50 [7]: 3.53 µM (inactive) | GI50 [3]: 1.66 µM (inactive) | GI50 [4]: 4.09 µM (inactive) | GI50 [5]: 3.15 µM (inactive) | GI50 [8]: 17.7 µM (inactive) | GI50 [6]: 5.09 µM (inactive)

CN(C)CCCNC(=O)N/N=C/c1cccc([N+](=O)[O-])c1
GI50 [2]: > 100 µM (inactive) | GI50 [7]: > 100 µM (inactive) | GI50 [3]: > 100 µM (inactive) | GI50 [5]: > 100 µM (inactive) | GI50 [6]: > 100 µM (inactive) | GI50 [9]: 5.93 µM (inactive)

Brc1ccc(/N=c2/nc3ccccn3n3nc(-c4ccccc4)cc23)cc1
GI50 [2]: 99.8 µM (inactive) | GI50 [3]: 29.6 µM (inactive) | GI50 [4]: 66.4 µM (inactive) | GI50 [5]: 56.8 µM (inactive) | GI50 [8]: 31.6 µM (inactive) | GI50 [9]: 10.3 µM (inactive)
